Measured values: patent US5399565A, “Pyrazolidinone CCK and gastrin antagonists and pharmaceutical formulations therof” (priority 1993, dated 1995)

Key:
brain CCK receptor = molecular target: T1, brain CCK receptor (Mus musculus, UniProt P56481); test: CCK receptor binding, mouse brain membranes (125I-CCK-8 sulfate); details: for inhibition at 1 µM / inhibition at 10 µM: read-out: Brain Percent Inhibition; for IC50: mouse brain membranes, read-out: Brain IC50
T1 construct: from tissue; host or cells: forebrain membranes of male CF-1 mice
T1 sequence (P56481 1-453): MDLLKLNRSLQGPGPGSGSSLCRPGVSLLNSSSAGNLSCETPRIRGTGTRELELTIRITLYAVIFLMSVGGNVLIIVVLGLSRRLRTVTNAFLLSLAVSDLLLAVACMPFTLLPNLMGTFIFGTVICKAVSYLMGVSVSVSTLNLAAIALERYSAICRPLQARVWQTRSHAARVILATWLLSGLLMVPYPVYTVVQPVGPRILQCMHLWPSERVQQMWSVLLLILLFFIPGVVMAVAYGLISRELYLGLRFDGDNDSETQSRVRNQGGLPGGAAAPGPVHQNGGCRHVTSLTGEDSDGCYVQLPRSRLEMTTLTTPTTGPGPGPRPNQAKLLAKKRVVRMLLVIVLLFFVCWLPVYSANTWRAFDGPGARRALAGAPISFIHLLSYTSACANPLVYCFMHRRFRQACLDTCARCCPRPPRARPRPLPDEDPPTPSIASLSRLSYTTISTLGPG
Experimental: Brain CCK receptor binding was performed using mouse brain membranes according to the method of Chang and Lotti (Proc. Natl. Acad. Sci. 83: 4923-4926, 1986). Male CF-1 mice, 23-25 g were sacrificed by cervical dislocation, the forebrain removed and placed in ice cold 50 mM Tris buffer, pH 7.4. The tissue was homogenized in 100 volumes of the Tris buffer with a Brinkman Polytron or Tekmar Tissumizer and then centrifuged at 40,000 g for 10 min. Pellets were resuspended in Tris buffer, centrifuged as above and then resuspended in 100 volumes of assay buffer, pH 6.5 (20 mM N-2-hydroxyethyl-piperazine-N'-2-ethane sulfonic acid (HEPES), 1 mM ethylene glycol his (2-aminoethyl ether-N,N,N',N'-tetraacetic acid) (EGTA), 5 mM MgCl2, 130 mM NaCl, and 0.25 mg/ml bacitracin). The binding assay consisted of 50 μL of compound (or buffer for total binding), 50 μL of ^125 I-CCK-8 sulfate (20 pM) (Amersham IM- 159), 200 μL of assay buffer and 200 μL of homogenate (80-120 μg protein). The samples were incubated at room temperature (25°) for 2 hours, and they were then filtered through GF/B glass fiber filters (soaked in wash buffer for 2 hours before use) using a 48 well Brandel cell harvester designed for receptor binding. The filters were washed twice with 3 ml of 50 mM Tris buffer, pH 7.4, containing 0.01% BSA and then counted for radioactivity in plastic tubes with a Micromedic 10/600 automatic gamma counter.
Compounds were dissolved in dimethyl sulfoxide (DMSO) at a concentration of 10 mM and then further diluted with assay buffer. The concentration of DMSO in the incubation was 0.1% or less and had no effect on the assay at that level. IC-50 values of displacement curves were determined using 7 concentrations of compound and were calculated using the ALLFIT computer program of DeLean, Munson and Rodbard (Am. J. Physiol. 235: E97-E102, 1978). Non-specific binding was determined as the displacement of the radioligand by 100 nM CCK-8 sulfate.

[1] = molecular target: T2, peripheral type CCK receptors in rat pancreas (Rattus norvegicus, UniProt P30551); test: Binding to peripheral type CCK receptors in rat pancreas (3H-L-364,718)
T2 construct: Pancreas was obtained from male Sprague-Dawley rats; from tissue; host or cells: pancreas membranes of male Sprague-Dawley rats
T2 sequence (P30551 1-444): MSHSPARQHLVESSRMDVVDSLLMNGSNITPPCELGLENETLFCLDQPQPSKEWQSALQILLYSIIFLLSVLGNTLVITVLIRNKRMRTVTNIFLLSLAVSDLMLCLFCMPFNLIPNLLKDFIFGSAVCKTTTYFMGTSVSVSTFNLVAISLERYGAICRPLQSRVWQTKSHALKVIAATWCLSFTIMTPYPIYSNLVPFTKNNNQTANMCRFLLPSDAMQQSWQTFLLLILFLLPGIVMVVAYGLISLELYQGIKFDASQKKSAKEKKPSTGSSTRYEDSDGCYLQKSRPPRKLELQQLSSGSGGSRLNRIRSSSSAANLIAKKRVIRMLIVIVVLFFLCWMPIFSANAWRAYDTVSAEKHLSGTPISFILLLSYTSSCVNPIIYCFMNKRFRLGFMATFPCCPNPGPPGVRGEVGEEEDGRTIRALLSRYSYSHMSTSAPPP
Experimental: Binding to peripheral type CCK receptors in rat pancreas was done according to the method of Chang et al. (Mol. Pharmacol. 30: 212-217, 1986) using ^3 H-L364, 718. Pancreas was obtained from male Sprague-Dawley rats, 150-200 g, after decapitation, and dissected free from adipose and connective tissue. The tissue was homogenized in 30 volumes of 50 mM Tris buffer, pH 7.4 and centrifuged at 40,000 g for 10 min. The tissue pellet was washed by resuspension and centrifugation as described above. The final pellet was suspended in 500 volumes of assay buffer (50 mM Tris buffer, pH 7.4, 5 mM MgCl2, 0.14 mg/ml bacitracin, and 5 mM dithiothreitol) to give a protein concentration of 30-60 μg/200 μl . Reagent volumes for the assay were the same as those used for CCK binding to brain membranes. Tritium labeled L-364,718 (Dupont NEN, NET-971) was used as the ligand at a concentration of 0.4-0.6 nM. The samples were incubated 1 hour at room temperature and then filtered as described for the CCK-brain receptor. Scintillation cocktail was added to the filters which were counted for radioactivity using a Micromedic Taurus automatic liquid scintillation counter.
Compound samples were prepared and IC-50 values were determined as described for the CCK-brain experiments. Non-specific binding was that amount left bound to the filters after adding 100 nM L-364,718.

[2] = read-out: Pancreas Percent Inhibition

| SMILES | inhibition at 10 µM [1, 2] [%] | IC50 (brain CCK receptor) [nM] | further results |
| --- | --- | --- | --- |
| O=C1NN(C(=O)Nc2cc(Cl)cc(Cl)c2)[C@H](c2ccccc2)[C@H]1c1ccccc1 (relative stereo) [Example 59] | 75 | – | inhibition at 1 µM (brain CCK receptor): 44% |
| O=C1NN(C(=S)Nc2cccc(Cl)c2Cl)[C@H](c2ccccc2)[C@H]1c1ccccc1 (relative stereo) [Example 64] | – | 5300 | inhibition at 1 µM ([1]; at 1 μM, read-out: Pancreas Percent Inhibition): 34% |
| C[C@H](NC(=O)N1NC(=O)C(c2ccccc2)C1c1ccccc1)c1ccccc1 (stereo partly drawn) [Example 101] | 7 | 1300 | – |
| O=C1NN(C(=O)Oc2ccccc2)[C@@H](c2ccccc2)[C@@H]1c1ccccc1 (relative stereo) [Example 79] | 9 | – | inhibition at 10 µM (brain CCK receptor): 43% |
| O=C1NN(C(=O)Nc2ccc(C3CCCCC3)cc2)[C@@H](c2ccccc2)[C@@H]1c1ccccc1 (relative stereo) [Example 31] | 71 | – | inhibition at 1 µM (brain CCK receptor): 54% |
| O=C1NN(C(=O)Nc2ccc(Oc3ccccc3)cc2)[C@@H](c2ccccc2)[C@@H]1c1ccccc1 (relative stereo) [Example 37] | 75 | – | inhibition at 1 µM (brain CCK receptor): 82% |
| CCCCC1C(c2ccccc2)C(=O)NN1C(=O)Nc1cccc(C(F)(F)F)c1 (stereo not drawn) [Example 70] | 36 | – | inhibition at 1 µM (brain CCK receptor): 13% |
| COc1cccc(NC(=O)N2NC(=O)[C@H](c3ccccc3)[C@H]2c2ccccc2)c1 (relative stereo) [Example 42] | 37 | 780 | – |
| O=C1NN(C(=O)Nc2ccc(-c3ccccc3)cc2)[C@@H](c2ccccc2)[C@@H]1c1ccccc1 (relative stereo) [Example 32] | 69 | – | inhibition at 1 µM (brain CCK receptor): 42% |
| CCCCC1C(c2ccccc2)C(=O)NN1C(=O)Nc1ccc(C(F)(F)F)cc1 (stereo not drawn) [Example 71] | 39 | 1200 | – |
| O=C1NN(C(=S)Nc2ccc(C(F)(F)F)cc2)[C@H](c2ccccc2)[C@H]1c1ccccc1 (relative stereo) [Example 62] | 37 | 2200 | – |
| CCOC(=O)c1ccc(NC(=O)N2NC(=O)[C@@H](c3ccccc3)[C@@H]2c2ccccc2)cc1 (relative stereo) [Example 22] | 27 | – | inhibition at 1 µM (brain CCK receptor): 42% |
| O=C1NN(C(=O)NCc2ccc(Cl)cc2)[C@@H](c2ccccc2)[C@@H]1c1ccccc1 (relative stereo) [Example 100] | 78 | 2200 | – |
| O=C1NN(C(=O)Cc2ccc(Cl)c(Cl)c2)[C@@H](c2ccccc2)[C@@H]1c1ccccc1 (relative stereo) [Example 78] | 49 | 1800 | – |
| COc1ccc(NC(=O)N2NC(=O)[C@@H](c3ccccc3)[C@@H]2c2ccccc2)cc1 (relative stereo) [Example 33] | 20 | 340 | – |
| CN1C(=O)[C@H](c2ccccc2)[C@@H](c2ccccc2)N1C(=O)Nc1cccc(Cl)c1Cl (relative stereo) [Example 66] | 23 | – | inhibition at 10 µM (brain CCK receptor): 40% |
| O=C1NN(C(=O)Nc2cccc([N+](=O)[O-])c2)[C@H](c2ccccc2)[C@H]1c1ccccc1 (relative stereo) [Example 40] | 38 | 750 | – |
| O=C1NN(C(=S)Nc2ccc(Cl)c(C(F)(F)F)c2)[C@H](c2ccccc2)[C@H]1c1ccccc1 (relative stereo) [Example 63] | – | 510 | IC50 ([1]; rat pancreas): 75 nM |
| O=C1NN(C(=O)N2CCc3ccccc3C2)[C@@H](c2ccccc2)[C@@H]1c1ccccc1 (relative stereo) [Example 109] | 11 | 6000 | – |
| O=C1NN(C(=O)c2ccc(C(F)(F)F)cc2)[C@H](c2ccccc2)[C@H]1c1ccccc1 (relative stereo) [Example 74] | 15 | – | inhibition at 10 µM (brain CCK receptor): 23% |
| O=C1NN(C(=O)Nc2ccc(F)c(Cl)c2)[C@H](c2ccccc2)[C@H]1c1ccccc1 (relative stereo) [Example 47] | 51 | 390 | – |
